In patent US20240025906A1 (NEURON23, INC., priority 2022, published 2024):
pIC50, pKd: −log10 of the molar value.

Tests used:
[1] = tested on: JAK1/TYK2 pSTAT5 (Tyr694/699) in THP-1 cell line; experiment: IFNa-stimulated JAK1/TYK2 pSTAT5 (Tyr694/699) inhibition cellular assay, AlphaLISA; format: cell-based; details: Homo sapiens; THP-1 cells, IFNa-stimulated, AlphaLISA (Assay B); read-out: Cellular_THP1_IFNa-pSTATS_TYK2
Summary of the method: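 pSTAT5 (Tyr694/699) in lysates quantified by AlphaLISA (615 nm) after 30 min IFNa stimulation (100 ng/mL stock) of THP-1 cells. The cells, 2e4 per well in HBSS, had first been exposed 1 h at 37° C. to eight 6-fold compound dilutions, 10000 down to 0.04 nM final. IC50 fitted by 4PL regression, bottom 0, Hill slope −1.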

TYK2 JH2 = molecular target: T1, TYK2 JH2 (Homo sapiens, UniProt P29597); experiment: TYK2 JH2 binding assay (KINOMEscan KdELECT competitive binding); details: TYK2 JH2 domain, DiscoverX KINOMEscan KdELECT (Assay A); read-out: Biochemical TYK2_DiscoverX_JH2_BND_Kd
T1 construct: purchased DiscoverX (KINOMEscan KdELECT service); host or cells: E. coli BL21-derived (T7 phage display) or HEK-293
T1 sequence (P29597 589-875 limits assumed): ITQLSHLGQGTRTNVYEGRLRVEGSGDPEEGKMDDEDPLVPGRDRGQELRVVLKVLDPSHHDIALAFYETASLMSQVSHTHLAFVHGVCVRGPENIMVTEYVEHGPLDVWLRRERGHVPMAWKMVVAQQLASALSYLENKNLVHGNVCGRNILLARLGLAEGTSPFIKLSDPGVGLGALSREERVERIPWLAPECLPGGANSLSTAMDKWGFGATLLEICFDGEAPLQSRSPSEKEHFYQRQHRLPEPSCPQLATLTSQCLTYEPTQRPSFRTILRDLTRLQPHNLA
Summary of the method: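 Test compounds were titrated in 11 three-fold steps against JH2 fragment captured on ligand-loaded magnetic beads, with 1 h incubation at room temperature and DMSO at 0.9%. Eluted kinase was quantified by qPCR, and Kd was fitted from the dose series.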

CNc1ncc(-c2nc3cc(N4CCOCC4)ccc3o2)c2cc(Nc3cc(C)nc(C)n3)ncc12 [Example 449, N^6-(2,6-dimethylpyrimidin-4-yl)-N^1-methyl-4-(5-morpholinobenzo[d]oxazol-2-yl)-2,7-naphthyridine-1,6-diamine]
pIC50 [1]: ≥ 6.30
pKd (TYK2 JH2): ≥ 7.00

CNc1ncc(-c2nc3cc(N4CCOCC4)ccc3o2)c2cc(NC(=O)NC3CC3)ncc12 [Example 450, 1-cyclopropyl-3-(8-(methylamino)-5-(5-morpholinobenzo[d]oxazol-2-yl)-2,7-naphthyridin-3-yl)urea]
pIC50 [1]: ≥ 6.30
pKd (TYK2 JH2): ≥ 7.00

[2H]C([2H])([2H])Nc1ncc(-c2nc3cc(N4C5CCC4COC5)ccc3o2)c2cc(NC(=O)C3CC3)ncc12 [Example 453, N-(5-(5-(3-oxa-8-azabicyclo[3.2.1]octan-8-yl)benzo[d]oxazol-2-yl)-8-((methyl-d3)amino)-2,7-naphthyridin-3-yl)cyclopropanecarboxamide]
pIC50 [1]: ≥ 6.30
pKd (TYK2 JH2): ≥ 7.00

[2H]C([2H])([2H])Nc1ncc(-c2nc3cc(OCC4CC4)ccc3o2)c2cc(NC(=O)C3CC3)ncc12 [Example 454, N-(5-(5-(cyclopropylmethoxy)benzo[d]oxazol-2-yl)-8-((methyl-d3)amino)-2,7-naphthyridin-3-yl)cyclopropanecarboxamide]
pIC50 [1]: ≥ 6.30
pKd (TYK2 JH2): ≥ 7.00

[2H]C([2H])([2H])Nc1ncc(-c2nc3cc(N4C5CCC4COC5)ccc3o2)c2cc(NC(=O)[C@H]3C[C@H]3C)ncc12 [Example 455, (1S,2R)—N-(5-(5-(3-oxa-8-azabicyclo[3.2.1]octan-8-yl)benzo[d]oxazol-2-yl)-8-((methyl-d3)amino)-2,7-naphthyridin-3-yl)-2-methylcyclopropane-1-carboxamide]
pIC50 [1]: ≥ 6.30
pKd (TYK2 JH2): ≥ 7.00

[2H]C([2H])([2H])Nc1ncc(-c2nc3cc(OCC4CC4)ccc3o2)c2cc(NC(=O)[C@H]3C[C@H]3C)ncc12 [Example 456, (1S,2R)—N-(5-(5-(cyclopropylmethoxy)benzo[d]oxazol-2-yl)-8-((methyl-d3)amino)-2,7-naphthyridin-3-yl)-2-methylcyclopropane-1-carboxamide]
pIC50 [1]: ≥ 6.30
pKd (TYK2 JH2): ≥ 7.00

CCNc1ncc(-c2nc3cc(N4CC5CN(C)CC(C4)O5)ccc3o2)c2cc(NC(=O)C3CC3)ncc12 [Example 457, N-(8-(ethylamino)-5-(5-(7-methyl-9-oxa-3,7-diazabicyclo[3.3.1]nonan-3-yl)benzo[d]oxazol-2-yl)-2,7-naphthyridin-3-yl)cyclopropanecarboxamide]
pIC50 [1]: ≥ 6.30
pKd (TYK2 JH2): ≥ 7.00

CCNc1ncc(-c2nc3cc(N4CCOCC4)ccc3o2)c2cc(NC(=O)C3CC3)ncc12 [Example 458, N-(8-(ethylamino)-5-(5-morpholinobenzo[d]oxazol-2-yl)-2,7-naphthyridin-3-yl)cyclopropanecarboxamide]
pIC50 [1]: ≥ 6.30
pKd (TYK2 JH2): ≥ 7.00

CCNc1ncc(-c2nc3cc(OC)ccc3o2)c2cc(NC(=O)C3CC3)ncc12 [Example 459, N-(8-(ethylamino)-5-(5-methoxybenzo[d]oxazol-2-yl)-2,7-naphthyridin-3-yl)cyclopropanecarboxamide]
pIC50 [1]: ≥ 6.30
pKd (TYK2 JH2): ≥ 7.00

CNc1ncc(-c2nc3nc(C)ccc3o2)c2cc(NC(=O)C3CC3)ncc12 [Example 460, N-(8-(methylamino)-5-(5-methyloxazolo[4,5-b]pyridin-2-yl)-2,7-naphthyridin-3-yl)cyclopropanecarboxamide]
pIC50 [1]: ≥ 6.30
pKd (TYK2 JH2): ≥ 7.00

CNc1ncc(-c2nc3cc(/C(C)=N\OC)ccc3o2)c2cc(NC(=O)C3CC3)ncc12 [Example 462, (Z)—N-(5-(5-(1-(methoxyimino)ethyl)benzo[d]oxazol-2-yl)-8-(methylamino)-2,7-naphthyridin-3-yl)cyclopropanecarboxamide]
pIC50 [1]: ≥ 6.30
pKd (TYK2 JH2): ≥ 7.00

CNc1ncc(-c2nc3cc(/C(C)=N/OC)ccc3o2)c2cc(NC(=O)C3CC3)ncc12 [Example 463, (E)-N-(5-(5-(1-(methoxyimino)ethyl)benzo[d]oxazol-2-yl)-8-(methylamino)-2,7-naphthyridin-3-yl)cyclopropanecarboxamide]
pIC50 [1]: ≥ 6.30
pKd (TYK2 JH2): ≥ 7.00

CNc1ncc(-c2nc3cc(-c4ncn(C)n4)ccc3o2)c2cc(NC(=O)C3CC3)ncc12 [Example 464, N-(5-(5-(1-methyl-1H-1,2,4-triazol-3-yl)benzo[d]oxazol-2-yl)-8-(methylamino)-2,7-naphthyridin-3-yl)cyclopropanecarboxamide]
pIC50 [1]: ≥ 6.30
pKd (TYK2 JH2): ≥ 7.00

[2H]C([2H])([2H])Nc1ncc(-c2nc3cc(N4CC(OC)C4)ccc3o2)c2cc(NC(=O)[C@H]3C[C@H]3C)ncc12 [Example 469, (1S,2R)—N-(5-(5-(3-methoxyazetidin-1-yl)benzo[d]oxazol-2-yl)-8-((methyl-d3)amino)-2,7-naphthyridin-3-yl)-2-methylcyclopropane-1-carboxamide]
pIC50 [1]: ≥ 6.30
pKd (TYK2 JH2): ≥ 7.00

CNc1ncc(-c2nc3ccc(OC)cn3n2)c2cc(NC(=O)C3CC3)ncc12 [Example 470, N-(5-(6-methoxy-[1,2,4]triazolo[1,5-a]pyridin-2-yl)-8-(methylamino)-2,7-naphthyridin-3-yl)cyclopropanecarboxamide]
pIC50 [1]: ≥ 6.30
pKd (TYK2 JH2): ≥ 7.00

CNc1ncc(-c2nc3ccc(N4CCOCC4)cn3n2)c2cc(NC(=O)C3CC3)ncc12 [Example 471, N-(8-(methylamino)-5-(6-morpholino-[1,2,4]triazolo[1,5-a]pyridin-2-yl)-2,7-naphthyridin-3-yl)cyclopropanecarboxamide]
pIC50 [1]: ≥ 6.30
pKd (TYK2 JH2): ≥ 7.00

CNc1ncc(-c2nc3ccc(N4CC(F)(F)C4)cn3n2)c2cc(NC(=O)C3CC3)ncc12 [Example 472, N-(5-(6-(3,3-difluoroazetidin-1-yl)-[1,2,4]triazolo[1,5-a]pyridin-2-yl)-8-(methylamino)-2,7-naphthyridin-3-yl)cyclopropanecarboxamide]
pIC50 [1]: ≥ 6.30
pKd (TYK2 JH2): ≥ 7.00

CNc1ncc(-c2nc3ccc(N4CC(F)C4)cn3n2)c2cc(NC(=O)C3CC3)ncc12 [Example 473, N-(5-(6-(3-fluoroazetidin-1-yl)-[1,2,4]triazolo[1,5-a]pyridin-2-yl)-8-(methylamino)-2,7-naphthyridin-3-yl)cyclopropanecarboxamide]
pIC50 [1]: ≥ 6.30
pKd (TYK2 JH2): ≥ 7.00

CNc1ncc(-c2nc3ccc(N4CCC4)cn3n2)c2cc(NC(=O)C3CC3)ncc12 [Example 474, N-(5-(6-(azetidin-1-yl)-[1,2,4]triazolo[1,5-a]pyridin-2-yl)-8-(methylamino)-2,7-naphthyridin-3-yl)cyclopropanecarboxamide]
pIC50 [1]: ≥ 6.30
pKd (TYK2 JH2): ≥ 7.00

CNc1ncc(-c2nc3ccc(N4CC(O)C4)cn3n2)c2cc(NC(=O)C3CC3)ncc12 [Example 475, N-(5-(6-(3-hydroxyazetidin-1-yl)-[1,2,4]triazolo[1,5-a]pyridin-2-yl)-8-(methylamino)-2,7-naphthyridin-3-yl)cyclopropanecarboxamide]
pIC50 [1]: ≥ 6.30
pKd (TYK2 JH2): ≥ 7.00

CNc1ncc(-c2nc3ccc(N4CC(OC)C4)cn3n2)c2cc(NC(=O)C3CC3)ncc12 [Example 476, N-(5-(6-(3-methoxyazetidin-1-yl)-[1,2,4]triazolo[1,5-a]pyridin-2-yl)-8-(methylamino)-2,7-naphthyridin-3-yl)cyclopropanecarboxamide]
pIC50 [1]: ≥ 6.30
pKd (TYK2 JH2): ≥ 7.00

CNc1ncc(-c2nc3ccc(N4CCO[C@H](C)C4)cn3n2)c2cc(NC(=O)C3CC3)ncc12 [Example 477, (R)-N-(8-(methylamino)-5-(6-(2-methylmorpholino)-[1,2,4]triazolo[1,5-a]pyridin-2-yl)-2,7-naphthyridin-3-yl)cyclopropanecarboxamide]
pIC50 [1]: ≥ 6.30
pKd (TYK2 JH2): ≥ 7.00

CNc1ncc(-c2nc3ccc(N4CCO[C@@H](C)C4)cn3n2)c2cc(NC(=O)C3CC3)ncc12 [Example 478, (S)-N-(8-(methylamino)-5-(6-(2-methylmorpholino)-[1,2,4]triazolo[1,5-a]pyridin-2-yl)-2,7-naphthyridin-3-yl)cyclopropanecarboxamide]
pIC50 [1]: ≥ 6.30
pKd (TYK2 JH2): ≥ 7.00

CNc1ncc(-c2nc3ccc(N4C[C@@H](C)O[C@@H](C)C4)cn3n2)c2cc(NC(=O)C3CC3)ncc12 [Example 479, N-(5-(6-((2R,6S)-2,6-dimethylmorpholino)-[1,2,4]triazolo[1,5-a]pyridin-2-yl)-8-(methylamino)-2,7-naphthyridin-3-yl)cyclopropanecarboxamide]
pIC50 [1]: ≥ 6.30
pKd (TYK2 JH2): ≥ 7.00

CNc1ncc(-c2nc3ccc(N4CCO[C@H](C(F)(F)F)C4)cn3n2)c2cc(NC(=O)C3CC3)ncc12 [Example 481, (S)-N-(8-(methylamino)-5-(6-(2-(trifluoromethyl)morpholino)-[1,2,4]triazolo[1,5-a]pyridin-2-yl)-2,7-naphthyridin-3-yl)cyclopropanecarboxamide]
pIC50 [1]: ≥ 6.30
pKd (TYK2 JH2): ≥ 7.00

CNc1ncc(-c2nc3ccc(N4CCO[C@@H](C(F)(F)F)C4)cn3n2)c2cc(NC(=O)C3CC3)ncc12 [Example 482, (R)-N-(8-(methylamino)-5-(6-(2-(trifluoromethyl)morpholino)-[1,2,4]triazolo[1,5-a]pyridin-2-yl)-2,7-naphthyridin-3-yl)cyclopropanecarboxamide]
pIC50 [1]: ≥ 6.30
pKd (TYK2 JH2): ≥ 7.00
